The values that follow come from publication PMC7318222, “A Family of Water‐Immiscible, Dipolar Aprotic, Diamide Solvents from Succinic Acid” (Chemsuschem, 2020).

Structures are written as SMILES. Marks after values point to notes of the source that are not given here.

In one series the target is T1, GR (Homo sapiens, UniProt P04150).
T1 construct: expression construct for the full-length human receptor under investigation; expressed in transfected cells; host or cells: human U2-OS cells (ATCC HTB-96), stably transfected
T1 sequence (P04150 1-777): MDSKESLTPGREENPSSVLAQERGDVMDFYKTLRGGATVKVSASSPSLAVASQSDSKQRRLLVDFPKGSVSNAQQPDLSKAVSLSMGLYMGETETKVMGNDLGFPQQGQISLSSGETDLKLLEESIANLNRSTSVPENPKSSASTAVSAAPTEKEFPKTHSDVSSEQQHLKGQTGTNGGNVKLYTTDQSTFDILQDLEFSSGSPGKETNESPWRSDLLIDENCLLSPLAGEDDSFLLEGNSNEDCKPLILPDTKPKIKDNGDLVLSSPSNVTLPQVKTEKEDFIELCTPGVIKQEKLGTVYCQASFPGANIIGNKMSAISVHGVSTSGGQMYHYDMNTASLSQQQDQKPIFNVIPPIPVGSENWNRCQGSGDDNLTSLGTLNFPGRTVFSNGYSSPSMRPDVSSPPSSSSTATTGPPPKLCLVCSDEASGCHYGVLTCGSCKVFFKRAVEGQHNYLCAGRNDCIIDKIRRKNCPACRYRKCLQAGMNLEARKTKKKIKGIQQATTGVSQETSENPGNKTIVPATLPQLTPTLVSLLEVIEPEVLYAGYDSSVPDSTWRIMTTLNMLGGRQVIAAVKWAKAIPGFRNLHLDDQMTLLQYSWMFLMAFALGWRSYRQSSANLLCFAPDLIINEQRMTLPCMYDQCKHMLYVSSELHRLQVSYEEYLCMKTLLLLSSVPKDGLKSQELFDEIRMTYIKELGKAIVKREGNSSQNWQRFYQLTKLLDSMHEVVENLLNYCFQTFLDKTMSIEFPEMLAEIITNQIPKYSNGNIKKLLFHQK
The experiment in a line: GR-anti CALUX reporter gene assay (antagonistic mode). The class given is cell-based. The note with it: PC20, 24 h exposure. The arrangement: key: –: no effect observed up to the highest test concentration. From the text:
(§1) nitroaniline ≥98.0% was purchased from Alfa Aeser. Cyrene was supplied by Circa group. N-butylpyrrolidinone was supplied by Eastman chemicals. […]
(§2) Polyarylethersulfone of 55,000 Da were obtained from INGE.BASF, Germany. The CALUX cell lines have been described previously.[1] They are based on human U2-OS cells (ATCC, HTB-96) stably transfected with an expression construct for the full-length human receptor under investigation, and a reporter construct consisting of multimerized responsive elements for the cognate receptor coupled to a minimal promoter element (TATA) and a luciferase gene. Cells were maintained as described previously,[2] using cell culture media and supplements from Fisher Scientific as described in the experimental procedures section. […]
(§3) In vitro reporter gene assays
(§4) The automated CALUX assays were carried out similarly as described earlier,[12] with some adaptations. In brief, the assay was performed in CO2 independent medium (Fisher Scientific, […]
(§5) with 30 µl cell suspension/well. After 24 h, exposure medium was prepared. A dilution series in 0.5log unit increments of each test compound (in DMSO) was added to a 96-wells plate containing assay medium (2% v/v). Of this exposure mixture, 30 µl was added to the assay plates containing the CALUX cells, resulting in a final DMSO concentration of 1%. Additionally, DMSO blanks and a full dose response curve of the relevant reference compound were included on each plate. All samples were tested in triplicate. The preparation of the compound dilution series as well as the exposure of the cells were performed on a Hamilton StarLET liquid handling robot coupled to a Cytomat incubator.
(§6) Directly after exposure, plates were sealed with non-breathing plate seals (Plate sealer, easy seal […]
(§7) After 24 h the exposure medium was removed using an EL406 washer-dispenser (BioTek) and 10 µl/well triton lysisbuffer was added by the EL406.
(§8) Subsequently, the luciferase signal was measured in a luminometer (InfinitePro coupled to a Connect Stacker, both TECAN). In order to be able to detect receptor antagonism, several assays were also performed in antagonistic mode. The assay procedure was as described above, with the only exception that the EC50 concentration of the reference agonist was present during the exposure.
(§9) The luminometer data was analysed as follows; the average of the triplicate wells was determined, […]

The target in another series is T2, PPARδ (Homo sapiens, UniProt Q03181).
T2 construct: expression construct for the full-length human receptor under investigation; expressed in transfected cells; host or cells: human U2-OS cells (ATCC HTB-96), stably transfected
T2 sequence (Q03181 1-441): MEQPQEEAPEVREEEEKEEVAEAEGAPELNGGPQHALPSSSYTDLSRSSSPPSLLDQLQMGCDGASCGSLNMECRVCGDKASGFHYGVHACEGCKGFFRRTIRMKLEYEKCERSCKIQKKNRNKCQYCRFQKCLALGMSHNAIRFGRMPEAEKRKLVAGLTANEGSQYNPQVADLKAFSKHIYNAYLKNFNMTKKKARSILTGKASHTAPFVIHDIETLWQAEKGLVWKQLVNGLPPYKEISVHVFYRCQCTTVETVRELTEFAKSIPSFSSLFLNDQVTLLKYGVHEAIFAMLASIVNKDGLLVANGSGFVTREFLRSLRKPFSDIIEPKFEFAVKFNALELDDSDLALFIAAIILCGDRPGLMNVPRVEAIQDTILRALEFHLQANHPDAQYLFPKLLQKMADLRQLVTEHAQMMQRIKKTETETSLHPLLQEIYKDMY
As to the kind of experiment: PPARδ CALUX reporter gene assay. The class given is cell-based. The arrangement: key: –: no effect observed up to the highest test concentration. The settings on record: PC10, 24 h exposure.
Description: as §1, §2, §3, §4, §5, §6, §7, §8, §9
(A reporter such as luciferase makes a cellular process visible.)

On the set-up of series [1]: key to C (carcinogenicity) / M (mutagenicity) / R (reproduction toxicity) / S (skin sensitization): −: absence of property; +: presence of property; ?: no prediction possible. The note with it: cited from earlier work.
Details of series [2]: method as in PubChem. The settings on record: data obtained from PubChem; ref PubChem; cited from earlier work.
Setting [3] is: exp: conclusion based on reliable experimental data.

For `CCCCN(CC)C(=O)CCC(=O)N(CC)CCCC` [EBSA, N,N′‐diethyl‐N,N′‐dibutylsuccindiamide], the “LEC GR‐anti” value at GR is “–”. For the same compound, the “LEC PPARδ” value at PPARδ was “–”.

Turning to `CCCCN(C)C(=O)CCC(=O)N(C)CCCC` [MBSA, N,N′‐dimethyl‐N,N′‐dibutylsuccindiamide], on GR, the “LEC GR‐anti” value is “–”. Besides, at PPARδ, the “LEC PPARδ” value is “–”.

Regarding `CCCCN1CCCC1=O` [NBP, N‐Butylpyrrolidinone, reference compound], in series [1] (setting [3]), the “M (mutagenicity)” value was “− (exp)”, the “R (reproduction toxicity)” value is “− (exp)” and the “S (skin sensitization)” value was “− (exp)”. For the same compound, in series [1] (experimental data), the “M (mutagenicity), in words” value was “negative”; the “R (reproduction toxicity), in words” value is given as “negative”; the “S (skin sensitization), in words” value is “negative”. Moreover, the “LEC GR‐anti” value on GR is on record as “–”. Moreover, the “LEC PPARδ” value on PPARδ is recorded as −2.3 Log M.

As to `CN1CCCC1=O` [NMP, N‐methyl‐2‐pyrrolidone, reference compound], the “Log P (o/w)” value in series [2] was −0.38^[d]. In series [1] (setting [3]), the “C (carcinogenicity)” value is on record as “− (exp)”, the “M (mutagenicity)” value is “− (exp)”, the “R (reproduction toxicity)” value was “+ (exp)” and the “S (skin sensitization)” value is listed as “− (exp)”. In series [1] (experimental data), the “C (carcinogenicity), in words” value is recorded as “negative”; the “M (mutagenicity), in words” value was “negative”; the “R (reproduction toxicity), in words” value is given as “positive”; the “S (skin sensitization), in words” value is given as “negative”.

Turning to `CCCCN(CCCC)C(=O)CCC(=O)N(CCCC)CCCC` [TBSA, N,N,N′,N′‐tetrabutylsuccindiamide], the “LEC GR‐anti” value on GR is recorded as “–”. Besides, at PPARδ, the “LEC PPARδ” value is listed as “–”.
